Reference: patent publication US12059399B2, “Methods for alleviating kidney disease and fibrosis of organ” (Getwing Biotechnology Medical Co., Ltd, priority 2021, dated 2024)

Assays:
[1] = test system: fibrous proteins (α-SMA, collagen I fibers, and vimentin) in kidney tissues; experiment: Protein expression analysis (Western blot) of renal tissues from the left obstructed kidney after UUO surgery; assay type: in vivo, Male C57BL/6J mice; conditions: 7 days, vs PCG
Description: (§1) The UUO surgery was performed in accordance with the Guidelines for Care and Use of Laboratory Animals. Specifically, during the UUO surgery, the respective mouse was anesthetized through intraperitoneal injection of pentobarbital (Manufacturer: Merck KGaA, Darmstadt, Germany; Catalogue no.: P3761) at a dose of about 60 mg per kg of body weight. The skin tissue and the subcutaneous muscle layer at the left side of the abdominal midline were incised, so that the left kidney was exposed and the left ureter was identified and dissociated. The left ureter was dissected out with scissors and ligated with silk surgical sutures (size: 4-0) at an upstream location approximately 1 cm from the renal hilum and at a downstream location approximately 1 cm from the renal hilum. After confirmation that no bleeding and no urine leakage occurred, the incised subcutaneous muscle layer and skin tissue were stitched.
(§2) The male C57BL/6J mice described in section 2 of the “General Experimental Materials” were randomly divided into 5 groups, namely, a sham-operated group (SOG), a pathological control groups (PCG), and three experimental groups (i.e., experimental group 1 (EG1), experimental group 2 (EG2), and experimental group 3 (EG3)) (n=3 per group). After being raised in the animal room for one week, the mice in the PCG and the EG1 to EG3 were subjected to the UUO surgery as described in section 1 of the “General Experimental Procedures”. The mice in the SOG were subjected to a similar surgical procedure, except that the ureter of the mice in the SOG was not obstructed, i.e., the left ureter was not dissected out and ligated. After surgery, during the entire experimental process which lasted 7 days, all the mice were placed in iron cages.
(§3) The mice of the EG1 to EG3 were respectively administered, via oral gavage, with the ferrous amino acid chelate described in section 1 of the “General Experimental Materials” at a dose of 5 mg/kg, 125 mg/kg and 250 mg/kg of body weight once daily (in the morning) for 7 days. At the end of Day 7, a blood sample and a urine sample, each in a volume of 0.2 mL, were obtained from each mouse in the EG1 to EG3. The mice of the SOG and the mice of the PCG received no treatment (i.e., 0 mg/kg of ferrous amino acid chelate), and at the end of Day 7, a blood sample and a urine sample, each in a volume of 0.2 mL, were obtained from each mouse.
The renal tissues were extracted from the left obstructed kidney of a selected mouse in each group, and then lysed with NETN lysis buffer (20 mM Tris, 150 mM NaCl, 1 mM EDTA, and 0.5% NP-40) on ice. The resultant cell lysates were centrifuged, and the supernatants were collected to serve as total protein samples.
Protein samples in equal amounts (i.e., 20 μg) as determined by Bradford assay were resolved in 8% or 10% sodium dodecyl sulfate-polyacrylamide (SDS-PAGE) gels, and then subjected to immunoblot analysis. To be specific, the separated proteins were transferred to Immobilon®-P polyvinylidene difluoride (PVDF) membranes (Manufacturer: Merck Millipore, NJ, USA). The blotted PVDF membranes thus obtained were blocked with Tris-buffered saline (TBS) and 0.1% (vol/vol) polysorbate 20 (also known as Tween 20) containing 5% non-fat dry milk for 1 hour at room temperature, followed by washing with TBST 3 times, each time for […], and then probing with the indicated primary antibodies overnight. The probed membranes were washed with a TBST buffer (a mixture of TBS and polysorbate 20) 3 times, each time for 5 minutes, and were then incubated with secondary antibodies, such as a horseradish peroxidase (HRP)-conjugated anti-mouse antibody or an HRP-conjugated anti-rabbit antibody for 60 minutes at room temperature. HRP was detected using ECL detection reagents (Merck Millipore, Darmstadt, Germany), and band intensity was determined by ImageQuant™ LAS-4000 luminescence image analyzer (GE Healthcare).
Anti-glyceraldehyde 3-phosphate dehydrogenase (GAPDH) was used as a loading control.

HK-2 cells [2] = experiment: Migration of HK-2 cells into the cell-free wound area, induced by TGF-β1 (EMT); assay type: cell-based, Human; conditions: 100 μg/mL with 50 ng/mL TGF-β1; 24 hours; vs TGF-β1 alone (comparative group 1)
Description: (§4) Human kidney proximal tubular epithelial cell line HK-2 (from normal adult human renal cortex) used in the following experiments was obtained from, the Bioresource Collection and Research Center (BCRC) of the Food industry Research and Development Institute (FIRDI) (No. 331, Shih-Pin Rd., Hsinchu City 300, Taiwan).
(§5) The HK-2 cells were incubated in 10-cm Petri dishes, each of which contained Dulbecco's modified Eagle's medium/Ham's Nutrient Mixture F-12 (DMEM/F12) (Manufacturer: Thermo Fisher Scientific, WA, USA; Catalogue no.: 12500062) supplemented with HyClone™ 1% (v/v) penicillin-steptomycin (Manufacturer: Cytiva; Catalogue no.: SC30010). Subsequently, cultivation was conducted in an incubator with culture conditions set at 37° C. and 5% CO2. Medium change was performed every 2 days. […]
First, the HK-2 cells described in section 3 of the General Experimental Materials were seeded at a concentration of 4×10^4 cells per well into wells of 6-well culture plates each containing DMEM supplemented with 1% (v/v) penicillin-steptomycin, and then were divided into 4 groups, namely, a control group, a comparative group 1, a comparative group 2, and an experimental group, followed by cultivation until reaching 90% of confluence. […] Cell migration was assessed at the 0 hour and 24th hour using an inverted optical microscope.

[3] = test system: mice subjected to UUO surgery; experiment: Biochemical analysis of blood and urine samples of mice 7 days after unilateral ureter obstruction (UUO) surgery; assay type: in vivo, Male C57BL/6J mice
Description: Male C57BL/6J mice (having a weight of about 25 g) purchased from the National Laboratory Animal Center (Taipei, Taiwan) were kept in an animal room under the following laboratory conditions: a temperature of about 24° C. and a 12-hour light/12-hour dark cycle. Diets and water were provided ad libitum for all of the experimental animals.
as §1, §2, §3
The blood sample of the respective mouse was subjected to measurements of alanine transaminase (ALT), aspartate transaminase (AST), blood urea nitrogen (BUN) and creatinine levels for evaluation of kidney health. The urine sample of the respective mouse was subjected to quantification of urea nitrogen and creatinine levels for evaluation of kidney health. For each of the aforesaid parameters, the differences between each group were analyzed according to the procedures as described in the section 2 of the “General Experimental Procedures”.

[4] = test system: left obstructed kidney of mice subjected to UUO surgery; experiment: Histological analysis of renal tissues from the left obstructed kidney after UUO surgery (H&E, Masson's Trichrome, α-SMA and vimentin staining); assay type: in vivo, Male C57BL/6J mice
Description: as §1, §2, §3
The renal tissues were extracted from the left obstructed kidney of a selected mouse in each group. Fixation was conducted using 10% formalin, and dehydration was conducted using a series of graded alcohols (lower to higher concentrations) and xylene, followed by embedding in paraffin. A tissue section of […] was obtained and placed on a slide, followed by heating in an oven at […] overnight for melting the paraffin. Xylene was used to remove the melted paraffin, and rehydration was conducted with graded alcohols (higher to lower concentrations). Endogenous peroxidase was removed using 1% H2O2, followed by washing with a phosphate-buffered saline (PBS) buffer, so as to increase the permeability. After incubating the tissue section with fetal bovine serum (FBS) to prevent binding of some non-specific antigens, water was removed by suction.
For staining of α-smooth muscle actin (SMA), a primary antibody against α-smooth muscle actin (SMA)(α-SMA) (Manufacturer: Abcam PLC; Catalogue no.: ab5694) with a dilution ratio of 1:400 was added to the tissue section at room temperature, and the reaction was allowed to proceed for 2 hours at room temperature. Thereafter, washing was conducted twice with PBS to remove unbound primary antibodies. A Polymer-HRP secondary antibody (Manufacturer: Golden Bridge International, Inc., USA) was added. One hour later after the reaction, washing was conducted twice with PBS. […]

HK-2 cells [5] = experiment: Cytotoxicity analysis (MTT) in HK-2 cells; assay type: cell-based, Human; conditions: EG1 to EG6: 50, 100, 250, 500, 750 and 1000 μg/mL; 24 hours; vs control group
Description: as §4
as §5, with “SC30010).” for “SC30010). Subsequently, cultivation was conducted in an incubator with culture conditions set at 37° C. and 5% CO2. Medium change was performed every 2 days.”
First, the HK-2 cells described in section 3 of the General Experimental Materials were seeded at a concentration of 2×10^4 cells per well into wells of 6-well culture plates each containing DMEM/F-12 supplemented with 1% (v/v) penicillin-steptomycin, and then were divided into 7 groups, namely, a control group (CG), and six experimental groups (i.e., experimental groups 1 to 6 (EG1 to EG6)), followed by cultivation in an incubator with culture conditions set at 37° C. and 5% CO2 for 24 hours. […] Subsequently, the medium in each group was collected and subjected to light absorbance measurement at a wavelength of 570 nm (OD570) using a spectrophotometer. […]

[6] = EG1 and EG2: 5 and 125 mg/kg oral
[7] = EG1 to EG3: 5, 125 and 250 mg/kg oral gavage once daily for 7 days, between SOG, PCG and EG1 to EG3
[8] = 125 and 250 mg/kg (EG2, EG3) compared with 5 mg/kg (EG1)
[9] = EG1 to EG3: 5, 125 and 250 mg/kg oral, 7 days, vs PCG

ferrous glycinate chelate [ferrous amino acid chelate]
expression of collagen I (Western blot) [1, 6]: no significant difference
expression of α-SMA (Western blot) [1, 6]: no significant difference
expression level of vimentin (Western blot) ([1]; EG2 and EG3: 125 and 250 mg/kg oral): significant reduction in expression level
expression of collagen I (Western blot) ([1]; EG3: 250 mg/kg oral): significantly reduced
expression of α-SMA (Western blot) ([1]; EG3: 250 mg/kg oral): significantly reduced
expression level of vimentin (Western blot) ([1]; from EG1 to EG3: 5, 125, 250 mg/kg oral): gradually reduced from EG1 to EG3
migration of HK-2 cells into the cell-free wound area (HK-2 cells [2]): decreased capability to migrate into the cell-free wound area
blood urea nitrogen level ([3]; EG1 to EG3: 5, 125 and 250 mg/kg oral gavage once daily for 7 days, UUO mice, vs PCG): significantly reduced compared to that in the PCG
urine urea nitrogen level ([3]; EG1 to EG3: 5, 125 and 250 mg/kg oral gavage once daily for 7 days, among PCG, EG1, EG2 and EG3): no significant difference
ALT level in the blood sample [3, 7]: no significant difference
AST level in the blood sample [3, 7]: no significant difference
creatinine level in the blood sample [3, 7]: no significant difference
urine creatinine level ([3]; EG2 and EG3: 125 and 250 mg/kg oral gavage once daily for 7 days, UUO mice, vs PCG): significantly reduced compared to that in the PCG
degree of reduction of interstitial deposition of collagen fibers and muscle fibers [4, 8]: greater in EG2 and EG3 compared with those in EG1
degree of reduction of tubular dilation [4, 8]: greater in EG2 and EG3 compared with those in EG1
amount of actin fibers (α-SMA staining) [4, 9]: significantly reduced compared with those in the PCG
interstitial deposition of collagen fibers and muscle fibers (Masson's Trichrome staining) [4, 9]: significantly reduced compared with those in the PCG
number of cells undergoing fibrosis (vimentin staining) [4, 9]: significantly reduced compared with those in the PCG
tubular dilation (H & E staining) [4, 9]: significantly reduced compared with those in the PCG
viability of the HK-2 cells (cell viability rate, MTT) (HK-2 cells [5]): not significantly affected
